From patent US12501899B2, “Mite infestation treatment” (priority 2019, dated 2025)
Structures can show the parent of a compound that is named as a salt. Where two headings read alike, the source gives them in different places.

Key:
Varroa destructor = conditions: after 24 hours
Ixodes ricinus = assay: Oral acaricidal test on ticks in membrane feeding wells with treated blood; format: in vivo; conditions: for mortality at 1 ppm / mortality at 10 ppm / mortality at 100 ppm: Ixodes ricinus, po
How it was run: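 Ixodes ricinus nymphs and adults (batches of 12) fed through silicone membranes on ATP-enriched blood at 37 °C; after attachment (24 h), compounds at 1, 10, 100 ppm in 0.1% DMSO added for 24 h, blood changed at 12 h. Mortality, attachment and convulsions scored at 1–96 h.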

SMILES: Cc1cccc([C@H](C)c2c[nH]cn2)c1C [Dexmedetomidine hydrochloride, (S)-4-[1-(2,3-dimethylphenyl)-ethyl]-1H-imidazole]
- mortality for Varroa mites (Varroa destructor; 0.1 μg/μL): 100%
- mortality for Varroa mites (Varroa destructor; 10 μg/μL): 100%
- effect in terms of tick detachment (in words) (Ixodes ricinus; 1, 10, 100 ppm, nymphs and adults): very limited effect
- detached nymphs in a replica (Ixodes ricinus; 1 ppm, nymphs): 1
- detached adult ticks in a replica (Ixodes ricinus; 100 ppm, adult ticks): 1
- mortality at 1 ppm (Ixodes ricinus; adult ticks, 1 ppm, 1 h, read-out: average percentage of adult tick mortality (moribund or dead adult ticks)): 0%
- mortality at 1 ppm (Ixodes ricinus; adult ticks, 1 ppm, 3 h, read-out: average percentage of adult tick mortality (moribund or dead adult ticks)): 0%
- mortality at 1 ppm (Ixodes ricinus; adult ticks, 1 ppm, 6 h, read-out: average percentage of adult tick mortality (moribund or dead adult ticks)): 3.1%
- mortality at 1 ppm (Ixodes ricinus; adult ticks, 1 ppm, 12 h, read-out: average percentage of adult tick mortality (moribund or dead adult ticks)): 3.1%
- mortality at 1 ppm (Ixodes ricinus; adult ticks, 1 ppm, 24 h, read-out: average percentage of adult tick mortality (moribund or dead adult ticks)): 64.2%
- mortality at 1 ppm (Ixodes ricinus; adult ticks, 1 ppm, 48 h, read-out: average percentage of adult tick mortality (moribund or dead adult ticks)): 88.2%
- mortality at 1 ppm (Ixodes ricinus; adult ticks, 1 ppm, 72 h, read-out: average percentage of adult tick mortality (moribund or dead adult ticks)): 100%
- mortality at 1 ppm (Ixodes ricinus; adult ticks, 1 ppm, 96 h, read-out: average percentage of adult tick mortality (moribund or dead adult ticks)): 100%
- mortality at 10 ppm (Ixodes ricinus; adult ticks, 1 h, read-out: average percentage of adult tick mortality (moribund or dead adult ticks)): 0%
- mortality at 10 ppm (Ixodes ricinus; adult ticks, 3 h, read-out: average percentage of adult tick mortality (moribund or dead adult ticks)): 0%
- mortality at 10 ppm (Ixodes ricinus; adult ticks, 6 h, read-out: average percentage of adult tick mortality (moribund or dead adult ticks)): 5.6%
- mortality at 10 ppm (Ixodes ricinus; adult ticks, 12 h, read-out: average percentage of adult tick mortality (moribund or dead adult ticks)): 11.1%
- mortality at 10 ppm (Ixodes ricinus; adult ticks, 24 h, read-out: average percentage of adult tick mortality (moribund or dead adult ticks)): 57.3%
- mortality at 10 ppm (Ixodes ricinus; adult ticks, 48 h, read-out: average percentage of adult tick mortality (moribund or dead adult ticks)): 79.5%
- mortality at 10 ppm (Ixodes ricinus; adult ticks, 72 h, read-out: average percentage of adult tick mortality (moribund or dead adult ticks)): 96.9%
- mortality at 10 ppm (Ixodes ricinus; adult ticks, 96 h, read-out: average percentage of adult tick mortality (moribund or dead adult ticks)): 100%
- mortality at 100 ppm (Ixodes ricinus; adult ticks, 100 ppm, 1 h, read-out: average percentage of adult tick mortality (moribund or dead adult ticks)): 0%
- mortality at 100 ppm (Ixodes ricinus; adult ticks, 100 ppm, 3 h, read-out: average percentage of adult tick mortality (moribund or dead adult ticks)): 0%
- mortality at 100 ppm (Ixodes ricinus; adult ticks, 100 ppm, 6 h, read-out: average percentage of adult tick mortality (moribund or dead adult ticks)): 5.9%
- mortality at 100 ppm (Ixodes ricinus; adult ticks, 100 ppm, 12 h, read-out: average percentage of adult tick mortality (moribund or dead adult ticks)): 11.8%
- mortality at 100 ppm (Ixodes ricinus; adult ticks, 100 ppm, 24 h, read-out: average percentage of adult tick mortality (moribund or dead adult ticks)): 63.9%
- mortality at 100 ppm (Ixodes ricinus; adult ticks, 100 ppm, 48 h, read-out: average percentage of adult tick mortality (moribund or dead adult ticks)): 76.4%
- mortality at 100 ppm (Ixodes ricinus; adult ticks, 100 ppm, 72 h, read-out: average percentage of adult tick mortality (moribund or dead adult ticks)): 91.3%
- mortality at 100 ppm (Ixodes ricinus; adult ticks, 100 ppm, 96 h, read-out: average percentage of adult tick mortality (moribund or dead adult ticks)): 100%
- mortality at 1 ppm (Ixodes ricinus; nymphs, 1 ppm, 1 h, read-out: average percentage of mortality of tick nymphs (moribund or dead nymphs)): 0%
- mortality at 1 ppm (Ixodes ricinus; nymphs, 1 ppm, 3 h, read-out: average percentage of mortality of tick nymphs (moribund or dead nymphs)): 0%
- mortality at 1 ppm (Ixodes ricinus; nymphs, 1 ppm, 6 h, read-out: average percentage of mortality of tick nymphs (moribund or dead nymphs)): 13.8%
- mortality at 1 ppm (Ixodes ricinus; nymphs, 1 ppm, 12 h, read-out: average percentage of mortality of tick nymphs (moribund or dead nymphs)): 31.3%
- mortality at 1 ppm (Ixodes ricinus; nymphs, 1 ppm, 24 h, read-out: average percentage of mortality of tick nymphs (moribund or dead nymphs)): 58.9%
- mortality at 1 ppm (Ixodes ricinus; nymphs, 1 ppm, 48 h, read-out: average percentage of mortality of tick nymphs (moribund or dead nymphs)): 85.7%
- mortality at 1 ppm (Ixodes ricinus; nymphs, 1 ppm, 72 h, read-out: average percentage of mortality of tick nymphs (moribund or dead nymphs)): 100%
- mortality at 1 ppm (Ixodes ricinus; nymphs, 1 ppm, 96 h, read-out: average percentage of mortality of tick nymphs (moribund or dead nymphs)): 100%
- mortality at 10 ppm (Ixodes ricinus; nymphs, 1 h, read-out: average percentage of mortality of tick nymphs (moribund or dead nymphs)): 0%
- mortality at 10 ppm (Ixodes ricinus; nymphs, 3 h, read-out: average percentage of mortality of tick nymphs (moribund or dead nymphs)): 9.2%
- mortality at 10 ppm (Ixodes ricinus; nymphs, 6 h, read-out: average percentage of mortality of tick nymphs (moribund or dead nymphs)): 24.9%
- mortality at 10 ppm (Ixodes ricinus; nymphs, 12 h, read-out: average percentage of mortality of tick nymphs (moribund or dead nymphs)): 48.3%
- mortality at 10 ppm (Ixodes ricinus; nymphs, 24 h, read-out: average percentage of mortality of tick nymphs (moribund or dead nymphs)): 83%
- mortality at 10 ppm (Ixodes ricinus; nymphs, 48 h, read-out: average percentage of mortality of tick nymphs (moribund or dead nymphs)): 96.9%
- mortality at 10 ppm (Ixodes ricinus; nymphs, 72 h, read-out: average percentage of mortality of tick nymphs (moribund or dead nymphs)): 100%
- mortality at 10 ppm (Ixodes ricinus; nymphs, 96 h, read-out: average percentage of mortality of tick nymphs (moribund or dead nymphs)): 100%
- mortality at 100 ppm (Ixodes ricinus; nymphs, 100 ppm, 1 h, read-out: average percentage of mortality of tick nymphs (moribund or dead nymphs)): 0%
- mortality at 100 ppm (Ixodes ricinus; nymphs, 100 ppm, 3 h, read-out: average percentage of mortality of tick nymphs (moribund or dead nymphs)): 13.3%
- mortality at 100 ppm (Ixodes ricinus; nymphs, 100 ppm, 6 h, read-out: average percentage of mortality of tick nymphs (moribund or dead nymphs)): 33%
- mortality at 100 ppm (Ixodes ricinus; nymphs, 100 ppm, 12 h, read-out: average percentage of mortality of tick nymphs (moribund or dead nymphs)): 59%
- mortality at 100 ppm (Ixodes ricinus; nymphs, 100 ppm, 24 h, read-out: average percentage of mortality of tick nymphs (moribund or dead nymphs)): 92.9%
- mortality at 100 ppm (Ixodes ricinus; nymphs, 100 ppm, 48 h, read-out: average percentage of mortality of tick nymphs (moribund or dead nymphs)): 100%
- mortality at 100 ppm (Ixodes ricinus; nymphs, 100 ppm, 72 h, read-out: average percentage of mortality of tick nymphs (moribund or dead nymphs)): 100%
- mortality at 100 ppm (Ixodes ricinus; nymphs, 100 ppm, 96 h, read-out: average percentage of mortality of tick nymphs (moribund or dead nymphs)): 100%
- ticks affected (convulsion, morbidity or death of ticks) (Ixodes ricinus; from 1 hour of exposure, regardless of the concentration tested (1, 10, 100 ppm)): 100%
